These results are taken from article PMC6030209, “Structure-Activity Investigations and Optimisations of Non-metabolite Agonists for the Succinate Receptor 1” (Scientific Reports, 2018).

One data set addresses T1, mSUCNR1 (Mus musculus, UniProt Q99MT6).
T1 construct: FLAG (own knowledge: pCMV-Tag 2B is an N-terminal FLAG vector); host or cells: HEK-293, transient transfection with Lipofectamine-2000
T1 sequence (Q99MT6 1-317): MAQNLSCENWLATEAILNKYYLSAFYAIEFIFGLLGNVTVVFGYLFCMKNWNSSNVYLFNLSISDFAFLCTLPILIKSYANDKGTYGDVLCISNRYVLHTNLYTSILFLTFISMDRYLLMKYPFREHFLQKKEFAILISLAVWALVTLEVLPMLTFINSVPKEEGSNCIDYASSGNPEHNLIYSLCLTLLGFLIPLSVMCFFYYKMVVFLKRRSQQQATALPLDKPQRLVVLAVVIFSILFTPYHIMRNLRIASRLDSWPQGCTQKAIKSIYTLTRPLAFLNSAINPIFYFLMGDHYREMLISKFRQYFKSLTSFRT
As to the kind of experiment: IP3 turnover assay in mSUCNR1 transfected HEK-293 cells. The format is cell-based. Conditions: for mSUCNR1 efficacy, %: efficacy relative to succinate (100%), IP3 turnover, HEK cells (N = 3). On the procedure: Receptor constructs for mSUCNR1 and hSUCNR1 were bought from Origene and cloned into the eukaryotic expression vector pCMV-Tag(2B) (Stratagene).
Transient transfection of the HEK-293 cells was done with Lipofectamine-2000 according to manufacturer’s protocol. Cells were supplemented with fresh medium after 5 h.
96-well plates were coated with poly-D-lysine and HEK-293 cells were plated (35.000 cells/well). Cells were transfected for 5 h the following day and subsequently incubated O/N with 0.5 μCi/mL myo[3H]inositol (Perkin Elmer) in 100 μL growth medium. On day 3 cells were washed with 200 µL HBSS/well (Gibco, Life Technologies) followed by a pre-incubation (30 min, 37 °C) with 100 µL HBSS supplemented with 10 mM LiCl. Cells were stimulated with ligand (120 min, 37 °C) and lysed with 50 µL 10 mM formic acid (30 min on ice). In a white 96 well plate 20 µL cell extracts and 80 µL 1:8 diluted YSi scintillation beads (Perkin Elmer) were mixed. The plate was spun down, and a Packard Top Count NXT counter recorded light emission (scintillation) after an 8 h delay.

The nature of the next data set: physchem. The format is physicochemical. The settings on record: pH 7.4, aqueous buffer, kinetic from dmso stock, 10 mM PBS7.4, 25 °C. As for the experimental part: Duplicates of a 200 μM solution of the dicarboxylic acids were prepared from 0.01 M PBS7.4 and a 10 mM stock solution in DMSO. The samples were incubated in an Eppendorf® Thermomixer (25 °C, 800 rpm) for 24 h. Afterwards, the samples were centrifuged for 5 min at 11,000 rpm and the supernatant was filtered (0.45 μm PTFE membrane) before analysis by HPLC. The solubility was calculated based on a concentration-absorption curve.

The format of data set [1] is physicochemical. Conditions: after 70 hours in 10 mM PBS7.4, 37 °C. As for the experimental part: Triplicates of a 50 μM solution of the test compounds were prepared from 0.01 M PBS7.4 and a 10 mM stock solution in DMSO. The samples were incubated in an Eppendorf® Thermomixer (37 °C, 650 rpm). The samples were briefly vortexed and 50 μL aliquots were withdrawn at the time points 0 h, 24 h, 48 h etc. and analysed immediately on UPLC. The chemical stability in PBS7.4 was determined at every time point in percentage relative to the 0 h time point.

Data set [2] is classed as in vitro ADME. Conditions: 2 hours, 37 °C; for stability in FaSSGF: simulated gastrointestinal fluid FaSSGF; for stability in FaSSIF: simulated gastrointestinal fluid FaSSIF. As for the experimental part:
FaSSIF, FeSSGF and FaSSGF were prepared in accordance to the manufacturers procedure, Biorelevant.com. Triplicates of a 50 μM solution of the test compounds were prepared from a 10 mM stock solution in DMSO diluted with FaSSGF/FaSSIF/FeSSIF. The samples were incubated in an Eppendorf® Thermomixer (37 °C, 650 rpm). Samples were withdrawn at 0 min and 120 min, centrifuged (10 min at 10,000 rpm) and the supernatant analysed by HPLC/UPLC. The stability was calculated based on peak area of a 0 point sample.

The format of data set [3] is in vitro ADME, mouse. The settings on record: 1 hour, 1 μM, 0.5 mg/mL microsomes. On the procedure: Microsomal stability was studied in mouse liver microsomes (0.5 mg/mL) at a final test compound concentration of 1 μM and performed in triplicates in accordance to the published protocol. In short: Prewarmed (37 °C) 0.1 M PBS7.4, 10 mM NADPH in PBS7.4 and test compound (1 mM in DMSO) were added to an Eppendorf® Tube. The samples were incubated for 5 min at 37 °C before addition of newly thawned microsomes. The samples were mixed by gentle vortexing and incubated for 1 h at 37 °C, 300 rpm in an Eppendorf® Thermomixer. Samples were quenched by addition of ice-cold MeOH/MeCN (1:1) and centrifuged for 5 min at 10,000 g. The supernatant was transferred to HPLC vials and stored in the freezer until analysis by HPLC/UPLC. The metabolic stability was calculated based on a 0 min sample. All compounds were analysed in triplicates.

Data set [4] concerns SUCNR1. Briefly: Active/inactive grouping by EC50 threshold (ALiBERO training set, Table S1). Format: cell-based. Conditions: active (1) / inactive (0), EC50 threshold of 10 µM. The source says: In brief, starting from the homology model supported by mutagenesis data[4], ALiBERO introduced receptor flexibility via Normal Mode Analysis and Monte Carlo sampling, to generate a small subset of receptor models (pockets). […] For a list of all compounds used in the optimisation protocol, see Table S1. Receptor structures were then chosen based on their ability to discriminate actives from inactives in a retrospective virtual screening using the docking protocol and scoring function in ICM (Molsoft L.L.C., San Diego, CA, USA)[20], as measured by the normalised square root area under the curve (NSQ_AUC). […] The ALiBERO-optimised receptor ensemble was subsequently validated in a virtual ligand screening using an external test set with a higher active:decoy ratio (~1:50).
ALiBERO is an iterative sampling-selection protocol for receptor optimisation that relies on the use of ligand information for selecting the best-performing receptor conformations. Homology models of the mouse SUCNR1 receptor were constructed according to Trauelsen et al.[4] and loaded into ICM (Molsoft L.L.C., San Diego, CA, USA). The structure was converted into an ICM object, thereby assigning protein atom types, optimising hydrogens and His, Pro, Asn, […] and Cys side-chain conformations. […] For a list of all compounds used in the optimisation protocol, see Table S1. ALiBERO was performed using the prepared receptor structure and ligand training set as input. Binding site residues were manually selected based on proximity to the position of MRS2500 in the superimposed structure of the P2Y1 receptor (PDB 4XNW). 100 elastic network normal mode analysis derived conformers were built in order to recreate backbone and side-chain flexibility (T = 300 K). Next, a flexible-ligand static-receptor small-scale virtual screening was performed on each of the receptor conformers, from which several pockets were selected for the following generation. The ligand and decoy molecules were docked into mSUCNR1, represented as pre-calculated potential grids and then sorted according to their ICM VLS scores. The maximum number of complementary pockets for each generation was set to 5 with a maximum of 10 generations. Receptor models were selected based on their combined screening performance, as determined by the normalised square root area under the curve, NSQ_AUC. After each round of virtual screening, an all-atom Monte Carlo side-chain refinement was performed to account for induced-by-ligand changes. NSQ_AUC values were calculated according to Katritch et al.[16].

Data set [5] is described as follows: logD7.4 determination (1-octanol/PBS7.4 shake flask). Conditions: 1-octanol/PBS7.4, pH 7.4. Format: physicochemical. As for the experimental part: A glass vial with screw cap (8 mL) was charged with test compound (40 μL, 10 mM in DMSO), PBS7.4 (0.01 M, 1980 μL), and 1-octanol (1980 μL). The vial was capped and sealed with parafilm and shaken at 700 rpm using an IKA® KS 125 basic shaker for 24 h at room temperature. The parafilm was removed and the sample was allowed to equilibrate for 1 h before analysis. 100 μL of the octanol phase was withdrawn and diluted 1:10 with MeOH(+0.1% formic acid)/MilliQ water (4:1, v/v) and analysed by HPLC/UPLC. The interface was removed and the PBS7.4 phase analysed directly by HPLC/UPLC. All analysis was performed in duplicates and logD values were calculated from the peak areas (mAU*min) and adjusted for difference in injection volume and concentration-absorption effects from the solvents, using two calibration points per compound per solvent, and dilution of the octanol phase. All compounds were analysed in triplicates.

Data set [6] deals with SUCNR1. The settings on record: full agonist on SUCNR1; cited from earlier work.

A value given as a limit tells only on which side of the number the result lay.

Usually EC50 stands for the concentration giving half of the maximal effect. As a reminder, the solubility (kinetic) is solubility judged after dilution from a stock solution rather than from solid. Consider `CCOc1ccc(-c2ccc(C(=O)N[C@@H](CC(=O)O)C(=O)O)o2)cc1` [Compound 21, (5-(4-Ethoxyphenyl)furan-2-carbonyl)-L-aspartic acid], for which, at mSUCNR1, a half-maximal response (EC50) required 36.3 nM and the “mSUCNR1 efficacy, %” value was determined as 70.2 ± 2.0%. For the same compound, in “physchem”, the solubility (kinetic) at 24 h is above 200 µM. In data set [1], this compound came in with a chemical stability above 98%. In data set [2], the “stability in FaSSGF” value was “stable” and the “stability in FaSSIF” value was “stable”. For the same compound, the “stability in FeSSIF” value in data set [2] (simulated gastrointestinal fluid FeSSIF) is given as “stable”. In addition, the “stability in mouse liver microsomes” value in data set [3] was “stable”. Besides, the Active with SUCNR1 [4] is 1 (active (1)).
Broadly, the logD is the decadic logarithm of the distribution of all forms, ionised or not, between an organic phase and buffer at a given pH. A higher logD goes with higher lipophilicity. For the compound `O=C(O)C[C@H](NC(=O)c1cccc(-c2ccc(OC(F)(F)F)cc2)n1)C(=O)O` [Compound 31, (6-(4-(Trifluoromethoxy)phenyl)picolinoyl)-L-aspartic acid], on mSUCNR1, a half-maximal effect (EC50) was put at 178 nM and the “mSUCNR1 efficacy, %” value is reported as 69.9 ± 2.2%. The compound also yielded a solubility (kinetic) at 24 h in “physchem” above 200 µM. For the same compound, the chemical stability in data set [1] is listed as above 98%. This compound showed a log distribution coefficient (logD) at 24 h in data set [5] of -2.13. In addition, in data set [2], the “stability in FaSSGF” value is given as “stable” and the “stability in FaSSIF” value is recorded as “stable”. In addition, the “stability in mouse liver microsomes” value in data set [3] is reported as “stable”. Besides, in the data set on SUCNR1 [4], the Active was 1 (active (1)).
On to cis-epoxysuccinic acid, for which the 50% effective concentration (EC50) with SUCNR1 [6] is 2700 nM.
